According to patent publication US9833497B2, “Human originated EGF domain proteins and use of the same” (CHENGDU SOURCEBIO LIMITED-LIABILITY COMPANY, priority 2013, dated 2017):

Columns and labels:
Format in all cases: cell-based
Proteus mirabilis = assay: MIC against Gram-negative bacteria: Proteus mirabilis; details: 5×10^5 CFU/mL
Summary of the method: (§1)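 Bacteria grown in LB at 37° C with shaking to McFarland 0.5, pelleted and resuspended in fresh LB, then seeded at 5×10^5 CFU/mL per well. Purified recombinant human EGF domain proteins were two-fold serially diluted in triplicate and plates shaken at 37° C, 175 rpm. MIC is the lowest protein concentration with no bacterial growth.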

Citrobacter diversus = assay: MIC against Gram-negative bacteria: Citrobacter diversus; details: 5×10^5 CFU/mL
Summary of the method: as §1

E. coli BL21 = assay: MIC against Gram-negative bacteria: E. coli BL21; details: 5×10^5 CFU/mL
Summary of the method: as §1

Moraxella catarrhalis = assay: MIC against Gram-negative bacteria: Moraxella catarrhalis; details: 5×10^5 CFU/mL
Summary of the method: as §1

Pseudomonas aeruginosa = assay: MIC against Gram-negative bacteria: Pseudomonas aeruginosa; details: 5×10^5 CFU/mL
Summary of the method: as §1

E. coli DH5α = assay: Antibacterial activity: MIC and growth curve against E. coli DH5α in 96-well plate; details: minimal inhibitory concentration against E. coli DH5α; 96-well plate, 5×10^5 CFU/mL, 37° C., judged after 8 h
Summary of the method: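 MIC taken as lowest protein level with no bacterial growth, tracked by A600 every 30 min during 37 °C, 175 rpm culture. Two-fold protein series 50-12.5 μg/mL final, triplicate wells, against 5×10^5 CFU/mL of LB-washed mid-log cells.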

Proteus vulgaris = assay: MIC against Gram-negative bacteria: Proteus vulgaris; details: 5×10^5 CFU/mL
Summary of the method: as §1

Serratia marcescens = assay: MIC against Gram-negative bacteria: Serratia marcescens; details: 5×10^5 CFU/mL
Summary of the method: as §1

Enterobacter cloacae = assay: MIC against Gram-negative bacteria: Enterobacter cloacae; details: 5×10^5 CFU/mL
Summary of the method: as §1

Aeromonas hydrophila = assay: MIC against Gram-negative bacteria: Aeromonas hydrophila; details: 5×10^5 CFU/mL
Summary of the method: as §1

Klebsiella pneumonia = assay: MIC against Gram-negative bacteria: Klebsiella pneumonia; details: 5×10^5 CFU/mL
Summary of the method: as §1

[1] = Proteus mirabilis, 96-well plate, 37° C., 10 h
[2] = Citrobacter diversus, 96-well plate, 37° C., 10 h
[3] = E. coli BL21, 96-well plate, 37° C., 10 h
[4] = Moraxella catarrhalis, 96-well plate, 37° C., 10 h
[5] = Pseudomonas aeruginosa, 96-well plate, 37° C., 10 h
[6] = Proteus vulgaris, 96-well plate, 37° C., 10 h
[7] = Serratia marcescens, 96-well plate, 37° C., 10 h
[8] = Enterobacter cloacae, 96-well plate, 37° C., 10 h
[9] = Aeromonas hydrophila, 96-well plate, 37° C., 10 h
[10] = Klebsiella pneumonia, 96-well plate, 37° C., 10 h
[11] = E. coli BL21, 10 h cultivation at 37° C.

## PRT1327 (EINPCLENHGGCDKNAECTQTGPNQAACNCLPAYTGDGKVCT; listed as Homo sapiens)
Proteus mirabilis; [1]
  MIC against P. mirabilis: 12.5 µg/mL
Citrobacter diversus; [2]
  MIC against C. diversus: 12.5 µg/mL
E. coli BL21; [3]
  MIC against E. coli BL21: 12.5 µg/mL
Moraxella catarrhalis; [4]
  MIC against M. catarrhalis: 12.5 µg/mL
Pseudomonas aeruginosa; [5]
  MIC against P. aeruginosa: 50 µg/mL
E. coli DH5α
  MIC: 25 µg/mL
Proteus vulgaris; [6]
  MIC against P. vulgaris: 12.5 µg/mL
Serratia marcescens; [7]
  MIC against S. marcescens: 25 µg/mL
Enterobacter cloacae; [8]
  MIC against E. cloacae: 50 µg/mL
Aeromonas hydrophila; [9]
  MIC against A. hydrophila: 12.5 µg/mL
Klebsiella pneumonia; [10]
  MIC against K. pneumonia: 12.5 µg/mL

## PRT1456 (DYDECERKEDDCVPGTSCRNTLGSFTCSCEGGAPDFPVEYSE; listed as Homo sapiens)
Proteus mirabilis; Proteus mirabilis, 10 h cultivation at 37° C.
  MIC against P. mirabilis: 12.5 µg/mL
Citrobacter diversus; Citrobacter diversus, 10 h cultivation at 37° C.
  MIC against C. diversus: 25 µg/mL
E. coli BL21; [11]
  MIC against E. coli BL21: 25 µg/mL
Moraxella catarrhalis; Moraxella catarrhalis, 10 h cultivation at 37° C.
  MIC against M. catarrhalis: 50 µg/mL
Pseudomonas aeruginosa; Pseudomonas aeruginosa, 10 h cultivation at 37° C.
  MIC against P. aeruginosa: 12.5 µg/mL
E. coli DH5α
  MIC: 12.5 µg/mL
Proteus vulgaris; Proteus vulgaris, 10 h cultivation at 37° C.
  MIC against P. vulgaris: 12.5 µg/mL
Serratia marcescens; Serratia marcescens, 10 h cultivation at 37° C.
  MIC against S. marcescens: 12.5 µg/mL
Enterobacter cloacae; Enterobacter cloacae, 10 h cultivation at 37° C.
  MIC against E. cloacae: 25 µg/mL
Aeromonas hydrophila; Aeromonas hydrophila, 10 h cultivation at 37° C.
  MIC against A. hydrophila: 12.5 µg/mL
Klebsiella pneumonia; Klebsiella pneumonia, 10 h cultivation at 37° C.
  MIC against K. pneumonia: 50 µg/mL

## PRT449 (FLCRCHQGYELHRDGFSCSDIDE; listed as Homo sapiens)
Proteus mirabilis; 96-well plate, 37° C., 10 h
  MIC against P. mirabilis: 50 µg/mL
Citrobacter diversus; 96-well plate, 37° C., 10 h
  MIC against C. diversus: 12.5 µg/mL
E. coli BL21; 96-well plate, 37° C., 10 h
  MIC against E. coli BL21: 12.5 µg/mL
Moraxella catarrhalis; 96-well plate, 37° C., 10 h
  MIC against M. catarrhalis: 25 µg/mL
Pseudomonas aeruginosa; 96-well plate, 37° C., 10 h
  MIC against P. aeruginosa: 50 µg/mL
E. coli DH5α
  MIC: 50 µg/mL
Proteus vulgaris; 96-well plate, 37° C., 10 h
  MIC against P. vulgaris: 12.5 µg/mL
Serratia marcescens; 96-well plate, 37° C., 10 h
  MIC against S. marcescens: 50 µg/mL
Enterobacter cloacae; 96-well plate, 37° C., 10 h
  MIC against E. cloacae: 50 µg/mL
Aeromonas hydrophila; 96-well plate, 37° C., 10 h
  MIC against A. hydrophila: 25 µg/mL
Klebsiella pneumonia; 96-well plate, 37° C., 10 h
  MIC against K. pneumonia: 12.5 µg/mL

## PRT177 (GPGPCDGNPCANGGSCSETPRSFECTCPRGFYGLRCE; listed as Homo sapiens)
Proteus mirabilis; P. mirabilis, 10 h cultivation at 37° C.
  MIC (μg/mL) P. mirabilis: 50 µg/mL
Citrobacter diversus; C. diversus, 10 h cultivation at 37° C.
  MIC (μg/mL) C. diversus: 12.5 µg/mL
E. coli BL21; [11]
  MIC (μg/mL) E. coli BL21: 25 µg/mL
Moraxella catarrhalis; M. catarrhalis, 10 h cultivation at 37° C.
  MIC (μg/mL) M. catarrhalis: 25 µg/mL
Pseudomonas aeruginosa; P. aeruginosa, 10 h cultivation at 37° C.
  MIC (μg/mL) P. aeruginosa: 12.5 µg/mL
E. coli DH5α
  MIC: 50 µg/mL
Proteus vulgaris; P. vulgaris, 10 h cultivation at 37° C.
  MIC (μg/mL) P. vulgaris: 25 µg/mL
Serratia marcescens; S. marcescens, 10 h cultivation at 37° C.
  MIC (μg/mL) S. marcescens: 12.5 µg/mL
Enterobacter cloacae; E. cloacae, 10 h cultivation at 37° C.
  MIC (μg/mL) E. cloacae: 50 µg/mL
Aeromonas hydrophila; A. hydrophila, 10 h cultivation at 37° C.
  MIC (μg/mL) A. hydrophila: 25 µg/mL
Klebsiella pneumonia; K. pneumonia, 10 h cultivation at 37° C.
  MIC (μg/mL) K. pneumonia: 25 µg/mL

## PRT672 (DIDECMLFGSEICKEGKCVNTQPGYECYCKQGFYYDGNLLECV; listed as Homo sapiens)
Proteus mirabilis; 96-well plate, 37° C., 10 h
  MIC P. mirabilis: 25 µg/mL
Citrobacter diversus; 96-well plate, 37° C., 10 h
  MIC C. diversus: 25 µg/mL
E. coli BL21; 96-well plate, 37° C., 10 h
  MIC E. coli BL21: 25 µg/mL
Moraxella catarrhalis; 96-well plate, 37° C., 10 h
  MIC M. catarrhalis: 12.5 µg/mL
Pseudomonas aeruginosa; 96-well plate, 37° C., 10 h
  MIC P. aeruginosa: 12.5 µg/mL
E. coli DH5α
  MIC: 12.5 µg/mL
Proteus vulgaris; 96-well plate, 37° C., 10 h
  MIC P. vulgaris: 50 µg/mL
Serratia marcescens; 96-well plate, 37° C., 10 h
  MIC S. marcescens: 12.5 µg/mL
Enterobacter cloacae; 96-well plate, 37° C., 10 h
  MIC E. cloacae: 12.5 µg/mL
Aeromonas hydrophila; 96-well plate, 37° C., 10 h
  MIC A. hydrophila: 12.5 µg/mL
Klebsiella pneumonia; 96-well plate, 37° C., 10 h
  MIC K. pneumonia: 25 µg/mL

## PRT77 (RSGRCTPGVCKNGGTCVNLLVGGFKCDCPSGDFEKPYCQ; listed as Homo sapiens)
Proteus mirabilis; [1]
  MIC (μg/mL) P. mirabilis: 50 µg/mL
Citrobacter diversus; [2]
  MIC (μg/mL) C. diversus: 50 µg/mL
E. coli BL21; [3]
  MIC (μg/mL) E. coli BL21: 12.5 µg/mL
Moraxella catarrhalis; [4]
  MIC (μg/mL) M. catarrhalis: 12.5 µg/mL
Pseudomonas aeruginosa; [5]
  MIC (μg/mL) P. aeruginosa: 25 µg/mL
E. coli DH5α
  MIC: 25 µg/mL
Proteus vulgaris; [6]
  MIC (μg/mL) P. vulgaris: 50 µg/mL
Serratia marcescens; [7]
  MIC (μg/mL) S. marcescens: 50 µg/mL
Enterobacter cloacae; [8]
  MIC (μg/mL) E. cloacae: 25 µg/mL
Aeromonas hydrophila; [9]
  MIC (μg/mL) A. hydrophila: 12.5 µg/mL
Klebsiella pneumonia; [10]
  MIC (μg/mL) K. pneumonia: 50 µg/mL
